Data from patent publication US20230235316A1, “MODEL FOR INSULIN RESISTANCE” (CHILDREN'S HOSPITAL MEDICAL CENTER, priority 2020, published 2023).
Entries after “also recorded” stand apart in the source; their conditions may differ. Each block holds one compound with its values, some of them ahead of it.

Experiments:
Format in all cases: cell-based, human
fatty liver HLO [1] = test: Drug screening in fatty liver HLO: fat accumulation; details: HLO treated with fatty acids for 6 days; drug exposure 48 hours
Experimental: (§1) HLO were treated with fatty acids for 6 days to induce a fatty liver phenotype. Then, candidate drugs were exposed to the sHLO for 48 hours.

fatty liver HLO [2] = test: Drug screening in fatty liver HLO: inflammatory gene expression; details: HLO treated with fatty acids for 6 days; drug exposure 48 hours
Experimental: as §1

HLO = test: Fatty acid induction of steatohepatitis phenotype in HLOs; details: 300 µM oleic acid for 72 hours
From the text: Fatty acid treatment induces a steatohepatitis phenotype in HLOs. […] DGAT½, which catalyzes the formation of triglycerides from diacylglycerol and acyl-CoA, was increased in sHLO relative to normal HLOs (FIG. 7D).

[3] = tested on: AKT phosphorylation in HLOs; test: AKT phosphorylation in HLOs after insulin (Western blot); details: HLOs insulin-starved 24 hours; insulin 0, 10 and 100 ng/mL for 20 minutes
Experimental: (§2) Insulin responsiveness of HLOs was analyzed using Western blotting and qPCR. The prepared HLOs were cultured under insulin starvation for 24 hours and then exposed to insulin.
To analyze phosphorylation of AKT activated downstream of insulin signaling. HLOs were treated with insulin at 0 ng/mL, 10 ng/mL and 100 ng/mL for 20 minutes, and then proteins were extracted for Western blot.

HLOs = test: qPCR of gluconeogenesis and lipogenesis regulator genes in insulin-treated HLOs; details: HLOs insulin-starved 24 hours, insulin 100 ng/mL for 8 hours
Experimental: as §2
To analyze insulin responsiveness of gluconeogenesis and lipogenesis regulator genes in HLOs, they were treated with insulin at 100 ng/mL for 8 hours, and then RNA was extracted for qPCR. In the insulin-treated HLOs, gluconeogenesis regulatory gene expression (FOXO1, CREB1, TFE1, PCK1) was suppressed by insulin stimulation (FIG. 4B). Conversely, lipogenesis regulatory gene expression (SREBP, FASN, ACLY, ACC) was induced by insulin stimulation (FIG. 4C).

PCK1 reporter HLOs = test: PCK1 reporter (mScarlet fluorescence / luciferase) HLOs
From the text: To visualize and quantify HLO insulin responsiveness, iPSCs were genetically edited using the CRISPR/Cas9 system to insert a reporter construct comprising mScarlet (fluorescence) and luciferase (luminescence) genes downstream of the gluconeogenesis regulatory gene PCK1, at the 3′ end in exon 10 (FIG. 5A). FIG. 5A also depicts a schematic of the reporter function. […] When gluconeogenesis is suppressed by exposure to insulin, the expression of mScarlet and luciferase also decreases in correlation with the downregulation of PCK1. […] However, it is envisioned that other reporter constructs, such as those using alternative reporters, can be used. Furthermore, alternative insulin pathway regulatory genes are depicted in FIG. 3C to be used in lieu of PCK1.
Human iPSCs were gene edited to insert the fluorescence and luminescence reporter construct to the 3′ end of PCK1. […] These gene edited iPSCs were subsequently differentiated into HLOs. […] Subsequently, 100 ng/mL of insulin was applied for 3 hours, and fluorescence and luciferase activity were measured. […] FIGS. 6C-D depicts the detection of PCK1-luciferase luminescence as measured by in vitro imaging.
The effect of insulin concentration was tested. PCK1-luciferase HLOs were starved of insulin for 24 hours and then treated with 0 nM, 10 nM, 100 nM, or 1000 nM of insulin for 1 hour for luciferase imaging.
The effect of insulin treatment time was tested. Insulin starved HLOs were treated with 100 nM of insulin for 1, 2, or 3 hours (with no insulin control).

sHLO = test: Insulin responsiveness in sHLO (Western blot, gene expression, PCK1, glucose production)
Experimental: Insulin responsiveness in the sHLO was examined. To detect insulin responsiveness, insulin starvation of sHLO and HLO controls was performed for 24 hours, followed by insulin stimulation.
Insulin signal analysis by Western blot was performed by treating with 100 nM insulin for 20 minutes. […] Insulin responsiveness of PCK1, CREB 1, and FOXO1 was not suppressed in sHLO (FIGS. 7J-K). […] Furthermore, glucose production was not inhibited after insulin stimulation in sHLO (FIG. 7L).

Compound: CN(C)C(=N)N=C(N)N [metformin]
fat accumulation (fatty liver HLO [1]): improvement
inflammatory gene expression (TNFa, NFKB1, NFKB2) / inflammatory response (fatty liver HLO [2]): limited improvement

Compound: CCCCCCCC/C=C\CCCCCCCC(=O)O [oleic acid]
fat accumulation (HLO): induces fat accumulation

PCK1-mScarlet fluorescence and luciferase activity (PCK1 reporter HLOs; 100 ng/mL insulin for 3 hours after treatment with cAMP): downregulation; also recorded: decreased
luciferase activity of PCK1 (PCK1 reporter HLOs; HLOs insulin-starved 24 hours, 10 nM, 100 nM or 1000 nM insulin for 1 hour): decreased
PCK1-luciferase activity (PCK1 reporter HLOs; cAMP-treated HLOs, 100 nM insulin for 3 hours): inhibited
luciferase activity of PCK1 (PCK1 reporter HLOs; insulin-starved HLOs, 100 nM insulin for 1, 2 or 3 hours): reduced after 1 hour of treatment
Compound: insulin
AKT phosphorylation [3]: induces AKT phosphorylation
gluconeogenesis regulatory gene expression (FOXO1, CREB1, TFE1, PCK1) (HLOs): suppression; also recorded: suppressed
lipogenesis regulatory gene expression (SREBP, FASN, ACLY, ACC) (HLOs): induction; also recorded: induced
glucose production (sHLO; sHLO after insulin stimulation): not affected; also recorded: not inhibited
insulin response of PCK1 and other gluconeogenesis genes (sHLO; sHLO insulin-starved 24 hours, then insulin stimulation): not responsive
phosphorylation of AKT (sHLO; sHLO insulin-starved 24 hours, 100 nM insulin for 20 minutes, Western blot): inhibited in sHLO
